Calls of active or inactive are those of the source. No cut-off for these calls is given here.

Data set [1] deals with Mitogen-activated protein kinase kinase kinase 5 (Homo sapiens) (UniProt Q99683). Kind of data set: Inhibition of ASK1 (unknown origin) at 10 uM assessed as residual enzyme activity.
Data set [2] has as its target RAC-alpha serine/threonine-protein kinase (Homo sapiens) (UniProt P31749). In words: Inhibition of AKT1 (unknown origin) at 10 uM assessed as residual enzyme activity.
For data set [3], the target named is Tyrosine-protein kinase ABL1 (Homo sapiens) (UniProt P00519). Kind of data set: Inhibition of ABL1 (unknown origin) at 10 uM assessed as residual enzyme activity.
Tyrosine-protein kinase ABL1 (Homo sapiens), sequence (P00519 whole entry): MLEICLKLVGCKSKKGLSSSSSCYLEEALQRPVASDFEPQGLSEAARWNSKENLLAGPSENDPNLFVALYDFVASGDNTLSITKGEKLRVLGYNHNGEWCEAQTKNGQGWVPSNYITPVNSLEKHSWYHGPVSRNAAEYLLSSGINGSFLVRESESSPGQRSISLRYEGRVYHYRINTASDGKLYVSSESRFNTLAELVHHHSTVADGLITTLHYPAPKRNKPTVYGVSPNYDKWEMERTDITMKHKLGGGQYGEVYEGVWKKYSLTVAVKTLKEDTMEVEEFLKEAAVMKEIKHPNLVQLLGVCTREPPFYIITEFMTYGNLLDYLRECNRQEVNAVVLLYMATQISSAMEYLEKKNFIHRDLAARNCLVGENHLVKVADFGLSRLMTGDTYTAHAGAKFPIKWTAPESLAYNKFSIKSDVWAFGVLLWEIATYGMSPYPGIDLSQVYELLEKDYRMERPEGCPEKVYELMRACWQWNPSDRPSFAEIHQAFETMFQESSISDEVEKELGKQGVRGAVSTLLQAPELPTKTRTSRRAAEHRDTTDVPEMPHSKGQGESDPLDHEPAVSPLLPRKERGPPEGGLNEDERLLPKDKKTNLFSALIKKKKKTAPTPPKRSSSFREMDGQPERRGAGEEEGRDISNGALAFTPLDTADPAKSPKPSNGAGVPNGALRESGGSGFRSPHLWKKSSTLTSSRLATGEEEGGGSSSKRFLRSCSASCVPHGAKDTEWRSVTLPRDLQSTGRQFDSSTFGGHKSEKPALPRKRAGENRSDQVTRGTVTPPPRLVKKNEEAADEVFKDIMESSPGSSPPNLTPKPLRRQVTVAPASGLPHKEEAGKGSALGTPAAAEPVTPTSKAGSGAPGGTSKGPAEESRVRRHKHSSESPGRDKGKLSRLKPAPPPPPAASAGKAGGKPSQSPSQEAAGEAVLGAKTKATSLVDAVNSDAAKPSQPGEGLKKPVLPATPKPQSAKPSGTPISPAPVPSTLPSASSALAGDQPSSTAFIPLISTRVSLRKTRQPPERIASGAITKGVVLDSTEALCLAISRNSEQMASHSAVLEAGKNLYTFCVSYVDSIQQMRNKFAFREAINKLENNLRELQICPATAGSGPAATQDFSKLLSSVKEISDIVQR
In data set [4] the target is Receptor-type tyrosine-protein kinase FLT3 (Homo sapiens) (UniProt P36888). Kind of data set: Inhibition of FLT3 (unknown origin) at 10 uM assessed as residual enzyme activity.
Receptor-type tyrosine-protein kinase FLT3 (Homo sapiens), sequence (P36888 whole entry): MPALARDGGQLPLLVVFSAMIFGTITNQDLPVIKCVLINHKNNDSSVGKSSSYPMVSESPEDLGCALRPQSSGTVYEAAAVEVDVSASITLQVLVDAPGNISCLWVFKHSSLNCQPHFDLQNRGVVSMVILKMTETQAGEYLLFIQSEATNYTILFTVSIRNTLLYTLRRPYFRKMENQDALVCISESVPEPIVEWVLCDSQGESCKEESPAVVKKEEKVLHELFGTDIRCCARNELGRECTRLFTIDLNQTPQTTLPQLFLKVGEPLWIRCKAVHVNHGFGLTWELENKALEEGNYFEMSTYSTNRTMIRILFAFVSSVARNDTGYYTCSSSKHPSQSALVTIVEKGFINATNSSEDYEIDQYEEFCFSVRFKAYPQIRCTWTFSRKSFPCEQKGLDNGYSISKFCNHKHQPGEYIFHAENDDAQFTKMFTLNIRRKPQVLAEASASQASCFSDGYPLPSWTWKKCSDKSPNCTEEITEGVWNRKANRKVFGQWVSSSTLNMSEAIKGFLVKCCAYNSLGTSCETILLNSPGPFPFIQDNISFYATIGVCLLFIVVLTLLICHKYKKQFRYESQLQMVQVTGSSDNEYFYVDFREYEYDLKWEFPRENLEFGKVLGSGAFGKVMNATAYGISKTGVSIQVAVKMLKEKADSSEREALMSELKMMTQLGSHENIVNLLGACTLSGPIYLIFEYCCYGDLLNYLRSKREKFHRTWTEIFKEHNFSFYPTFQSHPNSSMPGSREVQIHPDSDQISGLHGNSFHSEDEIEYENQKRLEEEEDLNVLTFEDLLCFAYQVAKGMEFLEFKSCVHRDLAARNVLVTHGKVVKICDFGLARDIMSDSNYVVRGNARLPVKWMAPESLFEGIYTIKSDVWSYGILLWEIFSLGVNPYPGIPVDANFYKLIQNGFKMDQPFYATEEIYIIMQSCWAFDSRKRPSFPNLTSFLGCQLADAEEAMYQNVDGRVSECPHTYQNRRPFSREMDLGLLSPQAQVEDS
The target of data set [5] is Macrophage colony-stimulating factor 1 receptor (Homo sapiens) (UniProt P07333). In words: Inhibition of FMS (unknown origin) at 10 uM assessed as residual enzyme activity.
Data set [6] concerns the target Receptor-type tyrosine-protein kinase FLT3 (Homo sapiens) (UniProt P36888). Kind of data set: Inhibition of FLT3 phosphorylation in human MV4-11 cells after 4 hrs by Western blot method. It is filed as cell-based.
For data set [7] the target is unchanged. Kind of data set: Inhibition of FLT3 in human MV4-11 cells assessed as reduction in STAT5 phosphorylation after 12 hrs by Western blot method. It is filed as cell-based. On the technique in general: Immunoblotting shows a protein as a band on a membrane.
For data set [8] the target is unchanged. Kind of data set: Inhibition of FLT3 in human MV4-11 cells assessed as reduction in ERK phosphorylation after 12 hrs by Western blot method. Type of data set: cell-based.
Data set [9] relates to MV4-11. In words: Induction of apoptosis in human MV4-11 cells assessed as increase in cleaved caspase-3 level at 0.1 to 10 uM after 12 hrs by Western blot method. It is filed as functional, cell-based.
Data set [10] concerns MV4-11. In words: Induction of apoptosis in human MV4-11 cells assessed as increase in cleaved PARP level at 0.1 to 10 uM after 12 hrs by Western blot method. It is filed as functional, cell-based.
Data set [11] has as its system MV4-11. In words: Induction of apoptosis in human MV4-11 cells assessed as PARP cleavage at 0.1 to 10 uM after 12 hrs by Western blot method. It is filed as functional, cell-based.
For data set [12], the system named is MV4-11. Kind of data set: Cytotoxicity against human MV4-11 cells assessed as cell viability at 1 uM after 24 hrs by WST1 assay. Type of data set: functional. The conditions noted are these: MV4-11, 24 h, read-out: Activity. (In general: Tetrazolium assays rely on reduction of a dye to a coloured formazan, in cell work by metabolically active cells.)
A further data set has as its system MDA-MB-231. Kind of data set: Cytotoxicity against human MDA-MB-231 cells assessed as cell viability at 1 uM after 24 hrs by WST1 assay. Type of data set: functional. The note with it: MDA-MB-231, 24 h, read-out: Activity.
Data set [13] in a line: Cytotoxicity against rat L6 cells assessed as cell viability at 1 uM after 24 hrs by WST1 assay. It is filed as cell-based. The note with it: read-out: Activity.
For data set [14], the target named is Insulin receptor (Homo sapiens) (UniProt P06213). Kind of data set: Inhibition of IR (unknown origin) at 10 uM assessed as residual enzyme activity.
Insulin receptor (Homo sapiens), sequence (P06213 28-758 limits assumed): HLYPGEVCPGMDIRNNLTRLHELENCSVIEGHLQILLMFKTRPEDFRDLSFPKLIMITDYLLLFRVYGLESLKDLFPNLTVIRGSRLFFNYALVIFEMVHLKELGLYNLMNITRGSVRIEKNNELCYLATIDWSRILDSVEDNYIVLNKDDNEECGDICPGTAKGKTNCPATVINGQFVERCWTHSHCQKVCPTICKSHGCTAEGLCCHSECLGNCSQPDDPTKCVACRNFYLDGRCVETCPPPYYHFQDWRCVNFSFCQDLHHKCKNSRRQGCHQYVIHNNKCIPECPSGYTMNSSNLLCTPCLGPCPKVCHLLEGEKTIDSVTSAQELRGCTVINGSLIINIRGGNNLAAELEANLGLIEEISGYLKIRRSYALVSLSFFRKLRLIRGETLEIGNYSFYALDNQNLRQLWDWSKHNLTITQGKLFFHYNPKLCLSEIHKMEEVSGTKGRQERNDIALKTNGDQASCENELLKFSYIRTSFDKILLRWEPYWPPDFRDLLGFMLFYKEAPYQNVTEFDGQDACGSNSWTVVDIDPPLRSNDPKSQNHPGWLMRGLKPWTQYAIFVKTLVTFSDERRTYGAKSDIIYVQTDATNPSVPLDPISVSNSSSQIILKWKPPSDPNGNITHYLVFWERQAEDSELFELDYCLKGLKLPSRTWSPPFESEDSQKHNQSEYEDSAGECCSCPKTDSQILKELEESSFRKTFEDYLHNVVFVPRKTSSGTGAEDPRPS
Insulin receptor (Homo sapiens), sequence (P06213 763-1382 limits assumed): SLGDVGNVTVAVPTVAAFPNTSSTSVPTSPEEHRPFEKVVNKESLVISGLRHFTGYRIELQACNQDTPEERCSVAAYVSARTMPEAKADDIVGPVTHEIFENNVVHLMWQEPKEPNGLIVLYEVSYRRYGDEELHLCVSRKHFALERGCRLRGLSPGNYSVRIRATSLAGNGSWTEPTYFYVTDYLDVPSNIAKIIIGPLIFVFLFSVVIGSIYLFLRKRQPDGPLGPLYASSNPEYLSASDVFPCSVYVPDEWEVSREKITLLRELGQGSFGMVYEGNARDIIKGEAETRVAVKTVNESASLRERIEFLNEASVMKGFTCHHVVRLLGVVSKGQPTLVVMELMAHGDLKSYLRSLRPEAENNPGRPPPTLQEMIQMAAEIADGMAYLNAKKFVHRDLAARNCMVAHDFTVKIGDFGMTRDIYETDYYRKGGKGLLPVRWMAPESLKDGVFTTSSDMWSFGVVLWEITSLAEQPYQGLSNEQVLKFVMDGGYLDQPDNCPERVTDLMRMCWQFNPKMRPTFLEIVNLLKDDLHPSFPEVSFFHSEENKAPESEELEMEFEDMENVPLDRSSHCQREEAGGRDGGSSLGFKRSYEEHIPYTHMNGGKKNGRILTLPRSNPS
Data set [15] deals with Tyrosine-protein kinase JAK1 (Homo sapiens) (UniProt P23458). In words: Inhibition of JAK1 (unknown origin) at 10 uM assessed as residual enzyme activity.
Data set [16] addresses Vascular endothelial growth factor receptor 2 (Homo sapiens) (UniProt P35968). In words: Inhibition of VEGFR2 (unknown origin) at 10 uM assessed as residual enzyme activity.
Data set [17] deals with Vascular endothelial growth factor receptor 1 (Homo sapiens) (UniProt P17948). In words: Inhibition of VEGFR1 (unknown origin) at 10 uM assessed as residual enzyme activity.
Data set [18] concerns the target Serine/threonine-protein kinase PLK1 (Homo sapiens) (UniProt P53350). In words: Inhibition of PLK1 (unknown origin) at 10 uM assessed as residual enzyme activity.
The species entered for another data set is Homo sapiens. Kind of data set: Inhibition of PKA (unknown origin) at 10 uM assessed as residual enzyme activity.

Mitogen-activated protein kinase kinase kinase 5 (Homo sapiens), sequence (Q99683 whole entry): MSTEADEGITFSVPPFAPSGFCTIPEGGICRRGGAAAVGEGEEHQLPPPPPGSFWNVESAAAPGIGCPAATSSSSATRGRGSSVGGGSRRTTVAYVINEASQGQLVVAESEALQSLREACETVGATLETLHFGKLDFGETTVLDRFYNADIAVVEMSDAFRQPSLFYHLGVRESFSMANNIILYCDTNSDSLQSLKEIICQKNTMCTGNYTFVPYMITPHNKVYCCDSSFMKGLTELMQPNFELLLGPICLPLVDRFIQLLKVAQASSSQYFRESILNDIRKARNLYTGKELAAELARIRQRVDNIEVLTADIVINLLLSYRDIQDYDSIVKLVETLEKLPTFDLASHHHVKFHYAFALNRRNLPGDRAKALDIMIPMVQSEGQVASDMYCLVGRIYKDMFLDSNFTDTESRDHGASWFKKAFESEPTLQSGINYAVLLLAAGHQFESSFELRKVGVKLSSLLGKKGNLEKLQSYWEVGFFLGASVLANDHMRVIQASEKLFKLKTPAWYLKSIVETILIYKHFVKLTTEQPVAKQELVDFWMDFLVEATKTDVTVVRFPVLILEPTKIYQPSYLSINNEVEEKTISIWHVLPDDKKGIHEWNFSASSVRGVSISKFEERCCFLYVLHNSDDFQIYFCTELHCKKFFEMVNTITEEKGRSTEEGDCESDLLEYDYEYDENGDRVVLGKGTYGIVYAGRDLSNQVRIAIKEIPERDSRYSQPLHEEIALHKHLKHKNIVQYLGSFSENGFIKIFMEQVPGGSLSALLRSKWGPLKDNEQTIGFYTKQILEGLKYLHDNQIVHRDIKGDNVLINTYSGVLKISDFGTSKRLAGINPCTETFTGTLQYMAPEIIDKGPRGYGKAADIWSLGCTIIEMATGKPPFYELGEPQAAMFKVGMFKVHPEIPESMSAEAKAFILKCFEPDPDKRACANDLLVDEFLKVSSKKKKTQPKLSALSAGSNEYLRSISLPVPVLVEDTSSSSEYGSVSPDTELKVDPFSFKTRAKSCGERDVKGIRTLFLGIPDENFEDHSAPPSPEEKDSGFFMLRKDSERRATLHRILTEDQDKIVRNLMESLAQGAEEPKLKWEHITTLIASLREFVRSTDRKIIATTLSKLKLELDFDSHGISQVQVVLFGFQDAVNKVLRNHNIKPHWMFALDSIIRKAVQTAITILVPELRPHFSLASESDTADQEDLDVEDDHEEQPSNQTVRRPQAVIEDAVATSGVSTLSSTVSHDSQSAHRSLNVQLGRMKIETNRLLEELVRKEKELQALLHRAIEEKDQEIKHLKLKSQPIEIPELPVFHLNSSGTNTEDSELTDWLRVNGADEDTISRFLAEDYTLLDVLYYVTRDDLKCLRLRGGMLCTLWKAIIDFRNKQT

On to `COc1ccc(-c2n[nH]c3ncc(-c4ccc(Cl)cc4N)cc23)cc1`, for which the Activity in [1] was 97.8%; in data set [2] it was 93.6%; in data set [3], 88.9%; in [4] it was 9.5%; in data set [5], 102%; in the data set on MV4-11 [9], “Dose-dependent effect”. For the same compound, the Activity entry was “Dose-dependent effect” with MV4-11 [10]; 95% in data set [14]; 103% in [15]; 98.6% in [16]; 90% in data set [17]; 108% in [18]. Also, in the data set listed under Homo sapiens, the Activity was found to be 93%. For the same compound, the inhibition result in data set [6] was “Active”. In addition, the inhibition result in [7] and in [8] was “Dose-dependent effect” throughout. For the same compound, in the data set with MV4-11 [11], the result was Active. In addition, the viability at 1 µM was 30% in the data set on MV4-11 [12] and 84% in the data set with MDA-MB-231. Besides, the viability at 24 h, 1 µM in data set [13] came to 107%.
